Data: US12441717B2, “Crystal form of polycyclic anaplastic lymphoma kinase inhibitor” (SHANDONG XUANZHU PHARMA CO., LTD., priority 2020, dated 2025)
“And” between values parts separate entries of the source, which are not always exact repeats. Identical values can stand only once. Values belong to the molecule of their own block, whether it stands above or below them.

Experiments:
Type in all cases: physicochemical
[1] = Moisture absorbability test (Chinese Pharmacopoeia 2015, General Principle 9103); conditions: for Moisture absorbability results: wrapped cells end with 'absorbability'
Text: A Test sample was taken and determined according to Chinese Pharmacopoeia, 2015 edition, vol. four, General Principle 9103, Guiding Principles for Drug Moisture Absorbability Test.

[2] = Solubility in buffered salt solutions of different pH (HPLC external standard); conditions: for solubility at 24 h: buffered salt solution, 25 °C, thermodynamic from solid
Text: The solubility (mg/mL) of crystal forms A and B and the amorphous form of the compound of formula (1) under different pH conditions were as shown in Table 1.

[3] = Stability study (high temperature, high humidity, light): properties, related substances, moisture, XRD; conditions: for Stability under high temperature, high humidity and light conditions (conclusion): overall conclusion of the stability study
Experimental: 2.1 Study Conditions for Crystal Form B of the Compound of Formula (1): • Placed at 105° C. for 5 days, left open, and sampled and tested on days 1 and 5; • placed at 60° C. for 10 days, left open, and sampled and tested on days 5 and 10; • placed under 25° C. RH 92.5% conditions for 10 days, left open, and sampled and tested on days 5 and 10; • under light conditions, using open and closed conditions (polyethylene bag+composite film bag), and sampling and testing when illumination requirements were met; and • placed under 40° C. RH 75% conditions for 1 month, left open, and sampled and tested on day 10 and after 1 month.
2.2 Study Conditions for Crystal Form a of the Compound of Formula (1): • Placed at 105° C. for 5 days, left open, and sampled and tested on days 1 and 5; • placed at 60° C. for 10 days, left open, and sampled and tested on days 5 and 10; • placed under 25° C. RH 92.5% conditions for 10 days, left open, and sampled and tested on days 5 and 10; • under light conditions, left open, and sampled and tested when illumination requirements were met; and • placed under 40° C. RH 75% conditions for 10 days, left open, and sampled and tested on days 5 and 10.
2.3 Study Conditions for the Amorphous Form of the Compound of Formula (1): • Placed at 60° C. for 10 days, left open, and sampled and tested on day 10; placed under 25° C. RH 92.5% conditions for 10 days, left open, and sampled and tested on day 10; and • under light conditions, using open and closed conditions (polyethylene bag+composite film bag), and sampling and testing when illumination requirements were met.
Illumination requirements: ICH Q1B Stability Test: Photostability Testing of New Drug Substances and formulation.
Determination of related substances: Determination by high performance liquid chromatography in accordance with “Chinese Pharmacopoeia”, 2015 edition, Vol. four, General Principle 0512.
Moisture determination: Determination according to “Chinese Pharmacopoeia”, 2015 edition, vol. four, General Principle 0832, Moisture Determination Method, First Method (Fischer's method), 2 Coulometric Titration Method.
XRD determination: Determination according to “Chinese Pharmacopoeia”, 2015 edition, vol. four, General Principle 0451 X-ray Diffraction Method—Second Method, Powder X-ray Diffraction Method.

[4] = Fluidity after universal pulverization (angle of repose, Carr's index, electrostatic phenomenon); conditions: for Angle of repose / Carr's index % / ρbulk / ρtapped: after universal pulverization
Experimental: The amorphous form and crystal forms A and B of the compound of formula (1) were treated by universal pulverization.
The fluidity of the crystal form could be characterized by the angle of repose and the Carr's index. It was generally believed that the smaller the angle of repose and the Carr's index, the better the fluidity.

[5] = buffered salt solution pH 1.0, shaken at 25° C. for 24 h
[6] = buffered salt solution pH 4.5, shaken at 25° C. for 24 h
[7] = buffered salt solution pH 6.8, shaken at 25° C. for 24 h
[8] = buffered salt solution pH 7.4, shaken at 25° C. for 24 h
[9] = Day 0, coulometric Fischer titration
[10] = Day 0, related substances by HPLC
[11] = Day 10, at 25° C. RH 92.5%, open
[12] = Light - closed (polyethylene bag+composite film bag), ICH Q1B illumination
[13] = Light - closed, ICH Q1B illumination
[14] = Light - open, ICH Q1B illumination
[15] = Light - open, pattern compared with day 0
[16] = Day 5, at 25° C. RH 92.5%, open

Hygroscopic weight gain (%) [1]: 2.8%
Moisture absorbability results [1]: Having moisture
Solubility [2, 5]: 11200 µg/mL
Solubility [2, 6]: 17 µg/mL
Solubility [2, 7]: 10 µg/mL
Solubility [2, 8]: 8.7 µg/mL
Properties ([3]; Day 0): Off-white powder
Moisture % [3, 9]: 0.92%
Overall related % [3, 10]: 0.84%
Moisture % [3, 11]: 6.9%
Overall related % [3, 11]: 0.90%
Properties [3, 11]: Off-white powder
XRD ([3]; Day 10, at 25° C. RH 92.5%, open, pattern compared with day 0 (wrapped cell reads 'same as day 0')): Same as day 0
Moisture % ([3]; Day 10, at 60° C., open): 0.69%
Overall related % ([3]; Day 10, at 60° C., open): 1.78%
Properties ([3]; Day 10, at 60° C., open): Light yellow powder
XRD ([3]; Day 10, at 60° C., open, pattern compared with day 0 (wrapped cell reads 'same as day 0')): Same as day 0
Properties [3, 12]: Off-white powder
Moisture % [3, 13]: 0.62%
Overall related % [3, 13]: 0.88%
XRD ([3]; Light - closed, pattern compared with day 0 (wrapped cell reads 'same as day 0')): Same as day 0
Moisture % [3, 14]: 2.3%
Overall related % [3, 14]: 10.19%
Properties [3, 14]: Light yellow powder
XRD [3, 15]: Same as day 0
Stability under high temperature, high humidity and light conditions (conclusion) [3]: unstable
Electrostatic phenomenon after pulverization [4]: serious electrostatic phenomenon
Angle of repose [4]: 50.6 °
Compound: Cc1cc(Nc2ncc(Cl)c(Nc3ccccc3S(=O)(=O)C(C)C)n2)c2c(c1C1CCNCC1)OCCO2 [Amorphous form, 5-chloro-N^4-(2-(isopropylsulfonyl)phenyl)-N^2-(7-methyl-8-(piperidin-4-yl)-2,3-dihydrobenzo[b][1,4]dioxin-5-yl)pyrimidine-2,4-diamine]

Hygroscopic weight gain (%) [1]: 0.08%
Moisture absorbability results [1]: no or almost no moisture absorbability
Solubility [2, 6]: 2 µg/mL
Solubility [2, 7]: Not detected
Solubility [2, 8]: Not detected
solubility at 24 h ([2]; pH 1, simulated gastric fluid, buffered salt solution pH 1.0, shaken at 25° C. for 24 h): 16900 µg/mL
Properties ([3]; Day 0): Off-white powder
Moisture % [3, 9]: 0.25%
Overall related % [3, 10]: 0.64%
Moisture % ([3]; Day 1, at 105° C., open): 0.18%
Overall related % ([3]; Day 1, at 105° C., open): 0.78%
Properties ([3]; Day 1, at 105° C., open): Off-white powder
Moisture % [3, 16]: 0.23%
Overall related % [3, 16]: 0.69%
Properties [3, 16]: Off-white powder
Moisture % ([3]; Day 5, at 40° C. RH 75%, open): 0.23%
Overall related % ([3]; Day 5, at 40° C. RH 75%, open): 0.79%
Properties ([3]; Day 5, at 40° C. RH 75%, open): Off-white powder
Moisture % ([3]; Day 5, at 60° C., open): 0.17%
Overall related % ([3]; Day 5, at 60° C., open): 0.81%
Properties ([3]; Day 5, at 60° C., open): Off-white powder
Moisture % ([3]; Day 5, at 105° C., open): 0.17%
Overall related % ([3]; Day 5, at 105° C., open): 1.6%
Properties ([3]; Day 5, at 105° C., open): Off-white powder
Moisture % [3, 11]: 0.17%
Overall related % [3, 11]: 0.78%
Properties [3, 11]: Off-white powder
Moisture % ([3]; Day 10, at 40° C. RH 75%, open): 0.15%
Overall related % ([3]; Day 10, at 40° C. RH 75%, open): 0.89%
Properties ([3]; Day 10, at 40° C. RH 75%, open): Off-white powder
Moisture % ([3]; Day 10, at 60° C., open): 0.11%
Overall related % ([3]; Day 10, at 60° C., open): 1.0%
Properties ([3]; Day 10, at 60° C., open): Off-white powder
Moisture % [3, 14]: 0.23%
Overall related % [3, 14]: 1.9%
Properties [3, 14]: Light yellow powder
XRD [3, 15]: Same as day 0
Stability under high temperature, high humidity and light conditions (conclusion) [3]: relatively stable
Electrostatic phenomenon after pulverization [4]: no obvious electrostatic phenomenon
Angle of repose [4]: 53 °
Carr's index % [4]: 45%
ρbulk [4]: 0.35 g/mL
ρtapped [4]: 0.63 g/mL
Compound: Cc1cc(Nc2ncc(Cl)c(Nc3ccccc3S(=O)(=O)C(C)C)n2)c2c(c1C1CCNCC1)OCCO2 [Crystal form A, 5-chloro-N^4-(2-(isopropylsulfonyl)phenyl)-N^2-(7-methyl-8-(piperidin-4-yl)-2,3-dihydrobenzo[b][1,4]dioxin-5-yl)pyrimidine-2,4-diamine]

Hygroscopic weight gain (%) [1]: 0.11%
Moisture absorbability results [1]: no or almost no moisture absorbability
Solubility [2, 5]: 19800 µg/mL
Solubility [2, 6]: 22 µg/mL
solubility at 24 h ([2]; pH 6.8, aqueous buffer, buffered salt solution pH 6.8, shaken at 25° C. for 24 h): 13 µg/mL
solubility at 24 h ([2]; pH 7.4, aqueous buffer, buffered salt solution pH 7.4, shaken at 25° C. for 24 h): 10 µg/mL
Moisture % ([3]; 1 M, at 40° C. RH 75%, open): 0.39%
Overall related % ([3]; 1 M, at 40° C. RH 75%, open): 0.11%
Properties ([3]; 1 M, at 40° C. RH 75%, open): Off-white crystalline
Moisture % [3, 9]: 0.38% and 0.27%
Overall related % [3, 10]: 0.09% and 0.10%
Moisture % ([3]; Day 1, at 105° C., open): 0.34%
Overall related % ([3]; Day 1, at 105° C., open): 0.10%
Properties ([3]; Day 1, at 105° C., open): Off-white crystalline
Moisture % [3, 16]: 0.37%
Overall related % [3, 16]: 0.07%
Properties [3, 16]: Off-white crystalline
Moisture % ([3]; Day 5, at 60° C., open): 0.26%
Overall related % ([3]; Day 5, at 60° C., open): 0.08%
Properties ([3]; Day 5, at 60° C., open): Off-white crystalline
Moisture % ([3]; Day 5, at 105° C., open): 0.37%
Overall related % ([3]; Day 5, at 105° C., open): 0.08%
Properties ([3]; Day 5, at 105° C., open): Off-white crystalline
Moisture % [3, 11]: 0.43%
Overall related % [3, 11]: 0.10%
Properties [3, 11]: Off-white crystalline
Moisture % ([3]; Day 10, at 40° C. RH 75%, open): 0.42%
Overall related % ([3]; Day 10, at 40° C. RH 75%, open): 0.09%
Properties ([3]; Day 10, at 40° C. RH 75%, open): Off-white crystalline
Moisture % ([3]; Day 10, at 60° C., open): 0.45%
Overall related % ([3]; Day 10, at 60° C., open): 0.10%
Properties ([3]; Day 10, at 60° C., open): Off-white crystalline
Properties [3, 12]: Off-white crystalline
Moisture % [3, 13]: 0.41%
Overall related % [3, 13]: 0.10%
Moisture % [3, 14]: 0.21%
Overall related % [3, 14]: 0.54%
Properties [3, 14]: Yellow powder
XRD [3, 15]: Same as day 0
Stability under high temperature, high humidity and light conditions (conclusion) [3]: relatively stable
Electrostatic phenomenon after pulverization [4]: no electrostatic phenomenon
Angle of repose [4]: 45.8 °
Carr's index % [4]: 30%
ρbulk [4]: 0.477 g/mL
ρtapped [4]: 0.683 g/mL
Compound: Cc1cc(Nc2ncc(Cl)c(Nc3ccccc3S(=O)(=O)C(C)C)n2)c2c(c1C1CCNCC1)OCCO2 [Crystal form B, 5-chloro-N^4-(2-(isopropylsulfonyl)phenyl)-N^2-(7-methyl-8-(piperidin-4-yl)-2,3-dihydrobenzo[b][1,4]dioxin-5-yl)pyrimidine-2,4-diamine]
